Laboratory results taken from BindingDB's records for doi:10.7270/Q2T72FVT (University of Pittsburgh, 2007).

target: Serine/threonine-protein kinase PLK1 (Homo sapiens, UniProt P53350); assay: Plk1 polo box domain binding inhibitors, dose response, biochemical, fluorescence polarization (AID 877)
Sequence (P53350 whole entry, the tested form may be a part): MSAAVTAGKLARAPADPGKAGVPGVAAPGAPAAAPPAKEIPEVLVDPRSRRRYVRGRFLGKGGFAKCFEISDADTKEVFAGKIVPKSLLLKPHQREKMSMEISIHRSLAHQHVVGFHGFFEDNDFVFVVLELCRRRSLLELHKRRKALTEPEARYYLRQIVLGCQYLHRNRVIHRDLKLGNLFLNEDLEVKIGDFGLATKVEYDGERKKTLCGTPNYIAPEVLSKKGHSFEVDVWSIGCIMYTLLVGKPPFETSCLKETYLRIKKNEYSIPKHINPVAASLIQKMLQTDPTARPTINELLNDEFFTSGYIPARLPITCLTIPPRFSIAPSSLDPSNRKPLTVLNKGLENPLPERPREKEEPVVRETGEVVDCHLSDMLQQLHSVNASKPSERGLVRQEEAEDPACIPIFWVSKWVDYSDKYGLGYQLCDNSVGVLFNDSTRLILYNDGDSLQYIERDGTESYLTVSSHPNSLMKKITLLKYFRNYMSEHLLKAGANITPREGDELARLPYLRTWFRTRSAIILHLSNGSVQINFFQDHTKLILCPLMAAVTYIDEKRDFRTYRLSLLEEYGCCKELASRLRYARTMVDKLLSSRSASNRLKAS

SMILES | IC50
CCOC(=O)c1ccc(NC(=O)c2c(O)[nH]c(=O)[nH]c2=O)cc1 | 2.28 µM
O=C1C(=O)c2ccccc2-c2ccccc21 | 10.1 µM
CC(=O)N(N=C1Sc2ccccc2C1=O)c1cccc(C)c1 [N-(3-methylphenyl)-N-[(3-oxidanylidene-1-benzothiophen-2-ylidene)amino]ethanamide] | 32.9 µM
O=C(COc1ccccc1)Nc1ccc(S(=O)(=O)N2CCOCC2)cc1 [MLS000108227] | > 50 µM
Cn1cc(SCC(=O)Nc2ccc3c(c2)OCCO3)c2ccccc21 [MLS000529783] | > 50 µM
CN(C)c1ccc(C(=O)Nc2nc3c(s2)CCCC3)cc1 [4-(dimethylamino)-N-(4,5,6,7-tetrahydro-1,3-benzothiazol-2-yl)benzamide] | > 50 µM
Cc1ccc(Cl)cc1N1CCN(S(=O)(=O)c2ccc3c(c2)oc(=O)n3C)CC1 [6-[4-(5-chloranyl-2-methyl-phenyl)piperazin-1-yl]sulfonyl-3-methyl-1,3-benzoxazol-2-one] | > 50 µM
Cc1ccc(CNC(=O)c2cc3c(=O)n(C)c4ccccc4c3n2C)cc1 [1,5-dimethyl-N-[(4-methylphenyl)methyl]-4-oxidanylidene-pyrrolo[3,2-c]quinoline-2-carboxamide] | > 50 µM
NC(=O)C1(N2CCCCC2)CCN(C(=O)NC2CCCCC2)CC1 [1-N-cyclohexyl-4-piperidin-1-ylpiperidine-1,4-dicarboxamide] | > 50 µM
CCn1cnc2sc(C(=O)N3CCN(c4ccc(OC)cc4)CC3)c(C)c2c1=O [3-ethyl-6-[4-(4-methoxyphenyl)piperazin-1-yl]carbonyl-5-methyl-thieno[2,3-d]pyrimidin-4-one] | > 50 µM
CCn1ncc(CN2CCN(C(=O)Nc3ccccc3C(=O)OC)CC2)c1C [2-[[4-[(1-ethyl-5-methyl-pyrazol-4-yl)methyl]piperazine-1-carbonyl]amino]benzoic acid methyl ester] | > 50 µM
O=C(NC1(O)C(=O)c2ccccc2C1=O)c1ccccc1 [N-(2-hydroxy-1,3-dioxo-2-indenyl)benzamide] | > 50 µM
Fc1ccc(Cn2nnnc2CN2CCN(C3CCCC3)CC2)cc1 [1-Cyclopentyl-4-[1-(4-fluoro-benzyl)-1H-tetrazol-5-ylmethyl]-piperazine] | > 50 µM
OCC(CO)(CO)N=Cc1cc(Br)ccc1O [(6E)-4-bromanyl-6-[[[2-(hydroxymethyl)-1,3-bis(oxidanyl)propan-2-yl]amino]methylidene]cyclohexa-2,4-dien-1-one] | > 50 µM
Cn1c(-c2cc3ccc(OC(=O)C(C)(C)C)cc3oc2=O)nc2ccccc21 [2,2-Dimethyl-propionic acid 3-(1-methyl-1H-benzoimidazol-2-yl)-2-oxo-2H-chromen-7-yl ester] | > 50 µM
CC(C)Sc1nc(N2CCOCC2)c2c(c1C#N)CC(C)(C)N(C)C2 [3-(isopropylthio)-6,6,7-trimethyl-1-morpholino-5,8-dihydro-2,7-naphthyridine-4-carbonitrile] | > 50 µM
Nc1cc(-c2ccc(Br)cc2)nn1S(=O)(=O)c1cccc2nsnc12 [2-(2,1,3-benzothiadiazol-4-ylsulfonyl)-5-(4-bromophenyl)-3-pyrazolamine] | > 50 µM
Oc1ccc2ccc3cccc[n+]3c2c1 [9-benzo[c]quinolizin-11-iumol;iodide] | 8.73 µM
Cc1nc2c(=O)n(C)c(=O)nc-2n(C)n1 [1,3,6-Trimethyl-1H-pyrimido[5,4-e][1,2,4]triazine-5,7-dione] | 14.6 µM
COc1ccc2c(c1OC)C(=O)OC2CC(=O)O (stereo not given) [(4,5-dimethoxy-3-oxo-1,3-dihydro-2-benzofuran-1-yl)acetic acid] | > 50 µM
CCOC(=O)c1cc2n(c1N)-c1ccccc1C2=O [1-amino-4-keto-pyrrol[1,2-a]indole-2-carboxylic acid ethyl ester] | 19.9 µM
Cc1ccccc1Oc1ncnc2oc(-c3ccccc3)cc12 [4-(2-methylphenoxy)-6-phenyl-furo[2,3-d]pyrimidine] | > 50 µM
COc1ccc(N(C)C2=NS(=O)(=O)c3ccccc32)cc1 [(1,1-Dioxo-1H-1lambda*6*-benzo[d]isothiazol-3-yl)-(4-methoxy-phenyl)-methyl-amine] | > 50 µM

SMILES | IC50
Cc1ccc(C(=O)c2c[nH]c(C(=O)NCCCN3CCOCC3)c2)cc1 [4-(4-methylbenzoyl)-N-(3-morpholin-4-ylpropyl)-1H-pyrrole-2-carboxamide] | > 50 µM
Cc1cccc(C)c1NC1=NC(=S)N(c2ccccc2)C12CCOC(C)(C)C2 (stereo not given) [4-(2,6-dimethylanilino)-7,7-dimethyl-1-phenyl-8-oxa-1,3-diazaspiro[4.5]dec-3-ene-2-thione] | > 50 µM
Cc1ccc(-n2c(O)c(C=NCCN3CCOCC3)c(=O)[nH]c2=O)cc1 | > 50 µM
CC1(C)CC(=O)C=C(NCc2ccncc2)C1 [5,5-dimethyl-3-(4-pyridylmethylamino)cyclohex-2-en-1-one] | > 50 µM
COc1cc(OC)cc(C(=O)NCCCN2CCOCC2)c1 [3,5-Dimethoxy-N-(3-morpholin-4-yl-propyl)-benzamide] | > 50 µM
O=NCc1cc(Br)ccc1OCC(=O)O [2-[4-bromanyl-2-(hydroxyiminomethyl)phenoxy]ethanoic acid] | > 50 µM
COC(=O)CCc1c(C)[nH]c(=S)[nH]c1=O [3-(6-methyl-4-oxo-2-sulfanylidene-1H-pyrimidin-5-yl)propanoic acid methyl ester] | > 50 µM
CCNC(=O)NC(=O)C(C)OC(=O)c1cccnc1SC (stereo not given) [2-(methylthio)-3-pyridinecarboxylic acid [1-(ethylcarbamoylamino)-1-oxopropan-2-yl] ester] | > 50 µM
Cn1nc(-c2ccc(Cl)cc2)nc2c(=O)n(C)c(=O)nc1-2 [3-(4-Chloro-phenyl)-1,6-dimethyl-1H-pyrimido[5,4-e][1,2,4]triazine-5,7-dione] | 2.46 µM
CNC(=O)CC(C(=O)O)c1ccc(OCC(C)C)cc1 (stereo not given) [2-(4-Isobutoxy-phenyl)-N-methyl-succinamic acid] | > 50 µM
COc1ccc(C(C)C)cc1S(=O)(=O)Nc1ccc(Cl)cn1 [MLS000071127] | > 50 µM
Cc1ccc(NC(=O)C2CC=CCC2C(=O)N2CCCCC2)cc1 (stereo not given) [6-(Piperidine-1-carbonyl)-cyclohex-3-enecarboxylic acid p-tolylamide] | > 50 µM
CCOCCCNC(=O)CCCOc1ccccc1 [MLS000088375] | > 50 µM
C=CCSc1nccc(-c2cc(Cl)sc2Cl)n1 [2-(allylsulfanyl)-4-(2,5-dichloro-3-thienyl)pyrimidine] | > 50 µM
C/C(=C\C(=O)Nc1cc(C)on1)c1ccccc1 [(E)-N-(5-methyl-1,2-oxazol-3-yl)-3-phenyl-but-2-enamide] | > 50 µM
Nc1cc2nsnc2cc1Br [(6-bromopiazthiol-5-yl)amine] | 40.8 µM
O=c1[nH]cc(COCc2ccccc2)c(=O)[nH]1 | > 50 µM
CC(C)=CC(=O)NCCc1ccccc1 [MLS000089152] | > 50 µM
O=C(Nc1nc2ccccc2s1)c1cc2c(s1)-c1ccccc1OC2 [MLS000522634] | > 50 µM
Nc1ccc2c(c1)C(=O)C(=O)c1ccccc1-2 [2-Amino-phenanthrene-9,10-dione] | 5.9 µM
CC(=O)N(N=C1Sc2ccccc2C1=O)c1ccccc1 [N-[(Z)-(3-ketobenzothiophen-2-ylidene)amino]-N-phenyl-acetamide] | > 50 µM
c1ccc(NCc2nnc3n2CCCCC3)cc1 [MLS000057041] | > 50 µM
